According to patent US20250255883A1, “Compositions and Methods for Treating Aging Hair” (CHL Industries, LLC, priority 2021, published 2025):

Tested on: Normal human keratinocytes (HEKa)
Test: Real-time quantitative PCR gene expression in normal human keratinocytes treated for 24 hours
Type: cell-based
Details: vs. water-treated control

diethyl ester of copper (II) chlorin e6 [DECCE6]
Fold Up- or Down-Regulation 18S (gene 18S (housekeeping), 20 ug/mL): 1.2 Fold
Fold Up- or Down-Regulation AQP3 (gene AQP3, 20 ug/mL): 5.5 Fold
Fold Up- or Down-Regulation AREL1 (gene AREL1, 20 ug/mL): −5.8 Fold
Fold Up- or Down-Regulation ARRDC3 (gene ARRDC3, 20 ug/mL): 1.9 Fold
Fold Up- or Down-Regulation BAMBI (gene BAMBI, 20 ug/mL): 1.3 Fold
Fold Up- or Down-Regulation CCL20 (gene CCL20, 20 ug/mL): 2.6 Fold
Fold Up- or Down-Regulation CDKN1A (gene CDKN1A, 20 ug/mL): −1.4 Fold
Fold Up- or Down-Regulation CSF1 (gene CSF1, 20 ug/mL): 1.1 Fold
Fold Up- or Down-Regulation CSF2 (gene CSF2, 20 ug/mL): −1.1 Fold
Fold Up- or Down-Regulation CXCL1 (gene CXCL1, 20 ug/mL): 2.7 Fold
Fold Up- or Down-Regulation CXCL2 (gene CXCL2, 20 ug/mL): 3.0 Fold
Fold Up- or Down-Regulation CXCL3 (gene CXCL3, 20 ug/mL): −1.1 Fold
Fold Up- or Down-Regulation CXCL8 (gene CXCL8, 20 ug/mL): 1.3 Fold
Fold Up- or Down-Regulation CXCL10 (gene CXCL10, 20 ug/mL): 7.6 Fold
Fold Up- or Down-Regulation CYB561 (gene CYB561, 20 ug/mL): −1.2 Fold
Fold Up- or Down-Regulation CYP1A1 (gene CYP1A1, 20 ug/mL): 2.8 Fold
Fold Up- or Down-Regulation DDX5 (gene DDX5, 20 ug/mL): 2.1 Fold
Fold Up- or Down-Regulation DEFB1 (gene DEFB1, 20 ug/mL): 3.4 Fold
Fold Up- or Down-Regulation EPGN (gene EPGN, 20 ug/mL): 1.2 Fold
Fold Up- or Down-Regulation FGF2 (gene FGF2, 20 ug/mL): −2.1 Fold
Fold Up- or Down-Regulation FOS (gene FOS, 20 ug/mL): 15.9 Fold
Fold Up- or Down-Regulation G2E3 (gene G2E3, 20 ug/mL): 4.1 Fold
Fold Up- or Down-Regulation GDF15 (gene GDF15, 20 ug/mL): 1.7 Fold
Fold Up- or Down-Regulation GPADH (gene GPADH (housekeeping), 20 ug/mL): −1.9 Fold
Fold Up- or Down-Regulation GPX2 (gene GPX2, 20 ug/mL): 5.5 Fold
Fold Up- or Down-Regulation HBEGF (gene HBEGF, 20 ug/mL): 3.1 Fold
Fold Up- or Down-Regulation HECTD1 (gene HECTD1, 20 ug/mL): 1.2 Fold
Fold Up- or Down-Regulation HERC1 (gene HERC1, 20 ug/mL): 3.5 Fold
Fold Up- or Down-Regulation HIF1AN (gene HIF1AN, 20 ug/mL): −1.6 Fold
Fold Up- or Down-Regulation HPRT1 (gene HPRT1 (housekeeping), 20 ug/mL): 1.6 Fold
Fold Up- or Down-Regulation HSP90B1 (gene HSP90B1, 20 ug/mL): 1.2 Fold
Fold Up- or Down-Regulation IFI44L (gene IFI44L, 20 ug/mL): 3.9 Fold
Fold Up- or Down-Regulation JUN (gene JUN, 20 ug/mL): 3.3 Fold
Fold Up- or Down-Regulation JUNB (gene JUNB, 20 ug/mL): 1.6 Fold
Fold Up- or Down-Regulation LTB4R (gene LTB4R, 20 ug/mL): −1.3 Fold
Fold Up- or Down-Regulation MAFF (gene MAFF, 20 ug/mL): −1.1 Fold
Fold Up- or Down-Regulation MAP1LC3B (gene MAP1LC3B, 20 ug/mL): 1.2 Fold
Fold Up- or Down-Regulation MAPK14 (gene MAPK14, 20 ug/mL): −1.7 Fold
Fold Up- or Down-Regulation MGAT1 (gene MGAT1, 20 ug/mL): −1.0 Fold
Fold Up- or Down-Regulation MGAT5 (gene MGAT5, 20 ug/mL): −1.8 Fold
Fold Up- or Down-Regulation MOGS (gene MOGS, 20 ug/mL): −2.8 Fold
Fold Up- or Down-Regulation N4BP1 (gene N4BP1, 20 ug/mL): 1.7 Fold
Fold Up- or Down-Regulation NFKBIA (gene NFKBIA, 20 ug/mL): 4.6 Fold
Fold Up- or Down-Regulation PELI1 (gene PELI1, 20 ug/mL): −1.5 Fold
Fold Up- or Down-Regulation PLAUR (gene PLAUR, 20 ug/mL): 2.1 Fold
Fold Up- or Down-Regulation PPP1R15A (gene PPP1R15A, 20 ug/mL): 3.2 Fold
Fold Up- or Down-Regulation PTGFRN (gene PTGFRN, 20 ug/mL): −4.6 Fold
Fold Up- or Down-Regulation PTGS2 (gene PTGS2, 20 ug/mL): −1.1 Fold
Fold Up- or Down-Regulation PTX3 (gene PTX3, 20 ug/mL): 1.1 Fold
Fold Up- or Down-Regulation REL (gene REL, 20 ug/mL): 1.6 Fold
Fold Up- or Down-Regulation RSAD2 (gene RSAD2, 20 ug/mL): 1.9 Fold
Fold Up- or Down-Regulation SAMD9L (gene SAMD9L, 20 ug/mL): 1.3 Fold
Fold Up- or Down-Regulation SOD2 (gene SOD2, 20 ug/mL): 1.2 Fold
Fold Up- or Down-Regulation SPRR2B (gene SPRR2B, 20 ug/mL): 2.4 Fold
Fold Up- or Down-Regulation TGFB1 (gene TGFB1, 20 ug/mL): −1.9 Fold
Fold Up- or Down-Regulation TNF (gene TNF, 20 ug/mL): 16.4 Fold
Fold Up- or Down-Regulation TNFAIP3 (gene TNFAIP3, 20 ug/mL): 2.4 Fold
Fold Up- or Down-Regulation UBE2S (gene UBE2S, 20 ug/mL): 2.2 Fold
Fold Up- or Down-Regulation UBE3B (gene UBE3B, 20 ug/mL): 1.2 Fold
Fold Up- or Down-Regulation UBE4B (gene UBE4B, 20 ug/mL): 1.2 Fold
Fold Up- or Down-Regulation UBE20 (gene UBE20, 20 ug/mL): 1.8 Fold
Fold Up- or Down-Regulation VCP (gene VCP, 20 ug/mL): −2.0 Fold
Fold Up- or Down-Regulation VEGFA (gene VEGFA, 20 ug/mL): 1.5 Fold
